In PMC5503023 (2016):

Assays:
[1] = test system: bcl-2 G-quadruplex DNA (DNA, G4) CGGGCGCGGGAGGAAGGGGGCGGGAGC; experiment: CD melting at 280 nm; conditions: 100 mM KCl; 10 mM Tris-HCl, pH 7.4; 10 μM complex, 100 μM DNA
[2] = test system: bcl-2 G-quadruplex DNA (DNA, G4) CGGGCGCGGGAGGAAGGGGGCGGGAGC; experiment: UV-vis absorption titration; conditions: 100 mM KCl; 10 mM Tris-HCl, pH 7.4; 20 μM complex; intrinsic binding constant

## Clc1ccc(-c2nc3c4cccnc4c4ncccc4c3[nH]2)cc1.[Cl-].[Ru+2].c1ccccc1
[1]
  ΔTm: 4.2 °C
[2]
  K: ~ 2.94 × 10^6 M^-1
